According to ChEMBL document CHEMBL4507280 (2021):

Assays:
[1] = target: SRSF protein kinase 3 (Homo sapiens) (UniProt Q9UPE1); settings: Compound concentration 1000.0 nM
[2] = tested on: Epidermal growth factor receptor (Homo sapiens), P00533 [L858R]; settings: Compound concentration 1000.0 nM
[3] = target: Phosphatidylinositol 4-phosphate 3-kinase C2 domain-containing subunit beta (Homo sapiens) (UniProt O00750); settings: Compound concentration 1000.0 nM
[4] = target: Calcium/calmodulin-dependent protein kinase kinase 2 (Homo sapiens) (UniProt Q96RR4); settings: Compound concentration 1000.0 nM
[5] = target: Beta-2 adrenergic receptor (Homo sapiens) (UniProt P07550); settings: Compound concentration 10.0 uM
Sequence of Beta-2 adrenergic receptor (Homo sapiens) (P07550 whole entry, looked up): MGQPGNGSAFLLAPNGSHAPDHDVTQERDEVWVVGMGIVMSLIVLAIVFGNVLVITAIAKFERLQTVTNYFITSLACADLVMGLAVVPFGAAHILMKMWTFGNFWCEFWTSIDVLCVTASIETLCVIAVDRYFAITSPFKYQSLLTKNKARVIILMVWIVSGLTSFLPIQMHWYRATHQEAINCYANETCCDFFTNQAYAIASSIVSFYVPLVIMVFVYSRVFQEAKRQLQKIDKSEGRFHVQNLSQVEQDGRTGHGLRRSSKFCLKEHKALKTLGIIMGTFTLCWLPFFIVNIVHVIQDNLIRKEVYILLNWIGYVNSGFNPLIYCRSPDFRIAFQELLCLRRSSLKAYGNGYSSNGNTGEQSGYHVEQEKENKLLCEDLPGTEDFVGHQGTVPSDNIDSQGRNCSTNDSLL

[6] = target: Non-receptor tyrosine-protein kinase TYK2 (Homo sapiens) (UniProt P29597); settings: Compound concentration 1000.0 nM
[7] = target: Calcium/calmodulin-dependent protein kinase type 1G (Homo sapiens) (UniProt Q96NX5); settings: Compound concentration 1000.0 nM
[8] = target: Dual specificity mitogen-activated protein kinase kinase 6 (Homo sapiens) (UniProt P52564); settings: Compound concentration 1000.0 nM
Sequence of Dual specificity mitogen-activated protein kinase kinase 6 (Homo sapiens) (P52564 whole entry): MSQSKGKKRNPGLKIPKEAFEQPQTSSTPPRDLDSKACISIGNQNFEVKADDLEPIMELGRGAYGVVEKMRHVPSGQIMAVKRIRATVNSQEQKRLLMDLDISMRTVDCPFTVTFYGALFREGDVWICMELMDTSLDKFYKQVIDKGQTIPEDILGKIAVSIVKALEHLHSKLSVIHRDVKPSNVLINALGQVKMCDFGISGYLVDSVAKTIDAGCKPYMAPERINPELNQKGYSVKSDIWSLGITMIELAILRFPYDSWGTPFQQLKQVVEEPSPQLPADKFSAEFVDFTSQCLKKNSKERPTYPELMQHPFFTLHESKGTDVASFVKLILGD

[9] = target: Sodium-dependent dopamine transporter (Homo sapiens) (UniProt Q01959); settings: Compound concentration 10.0 uM
Sequence of Sodium-dependent dopamine transporter (Homo sapiens) (Q01959 whole entry): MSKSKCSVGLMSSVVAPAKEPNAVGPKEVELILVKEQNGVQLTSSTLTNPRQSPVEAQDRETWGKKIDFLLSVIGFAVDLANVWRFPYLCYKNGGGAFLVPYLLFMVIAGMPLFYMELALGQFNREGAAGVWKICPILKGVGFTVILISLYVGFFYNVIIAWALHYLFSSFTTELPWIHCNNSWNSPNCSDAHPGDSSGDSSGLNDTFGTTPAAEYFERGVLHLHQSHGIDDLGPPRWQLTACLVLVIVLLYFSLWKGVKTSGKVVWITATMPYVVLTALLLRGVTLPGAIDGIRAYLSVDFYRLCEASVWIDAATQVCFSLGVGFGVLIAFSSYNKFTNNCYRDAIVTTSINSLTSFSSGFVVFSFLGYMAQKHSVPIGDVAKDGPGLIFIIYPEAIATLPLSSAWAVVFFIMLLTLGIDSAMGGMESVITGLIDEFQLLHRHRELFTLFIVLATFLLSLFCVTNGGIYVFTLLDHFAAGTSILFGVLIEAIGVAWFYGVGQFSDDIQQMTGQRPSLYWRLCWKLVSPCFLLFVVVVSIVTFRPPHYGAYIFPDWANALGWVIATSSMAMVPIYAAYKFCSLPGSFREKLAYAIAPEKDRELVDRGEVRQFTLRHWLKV

[10] = target: Dual specificity tyrosine-phosphorylation-regulated kinase 1B (Homo sapiens) (UniProt Q9Y463); settings: Compound concentration 1000.0 nM
Sequence of Dual specificity tyrosine-phosphorylation-regulated kinase 1B (Homo sapiens) (Q9Y463 whole entry, looked up): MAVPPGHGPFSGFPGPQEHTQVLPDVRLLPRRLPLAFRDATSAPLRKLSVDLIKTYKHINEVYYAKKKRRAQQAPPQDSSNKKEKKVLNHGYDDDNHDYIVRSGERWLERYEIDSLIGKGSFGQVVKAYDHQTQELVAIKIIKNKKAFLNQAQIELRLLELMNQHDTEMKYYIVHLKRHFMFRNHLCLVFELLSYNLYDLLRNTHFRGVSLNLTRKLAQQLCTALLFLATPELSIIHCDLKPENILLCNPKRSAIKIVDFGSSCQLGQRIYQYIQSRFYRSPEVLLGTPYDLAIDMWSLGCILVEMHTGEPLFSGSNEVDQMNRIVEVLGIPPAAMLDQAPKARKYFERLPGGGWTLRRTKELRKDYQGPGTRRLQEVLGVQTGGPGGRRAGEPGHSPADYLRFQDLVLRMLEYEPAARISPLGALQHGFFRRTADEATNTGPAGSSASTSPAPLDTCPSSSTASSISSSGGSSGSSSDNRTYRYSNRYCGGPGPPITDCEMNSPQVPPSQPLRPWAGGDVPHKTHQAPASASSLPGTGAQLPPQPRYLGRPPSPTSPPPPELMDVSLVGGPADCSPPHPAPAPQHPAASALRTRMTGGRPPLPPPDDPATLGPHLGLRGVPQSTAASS

[11] = target: Homeodomain-interacting protein kinase 2 (Homo sapiens) (UniProt Q9H2X6); settings: Compound concentration 1000.0 nM
[12] = target: Dual specificity mitogen-activated protein kinase kinase 1 (Homo sapiens) (UniProt Q02750); settings: Compound concentration 1000.0 nM
Sequence of Dual specificity mitogen-activated protein kinase kinase 1 (Homo sapiens) (Q02750 whole entry): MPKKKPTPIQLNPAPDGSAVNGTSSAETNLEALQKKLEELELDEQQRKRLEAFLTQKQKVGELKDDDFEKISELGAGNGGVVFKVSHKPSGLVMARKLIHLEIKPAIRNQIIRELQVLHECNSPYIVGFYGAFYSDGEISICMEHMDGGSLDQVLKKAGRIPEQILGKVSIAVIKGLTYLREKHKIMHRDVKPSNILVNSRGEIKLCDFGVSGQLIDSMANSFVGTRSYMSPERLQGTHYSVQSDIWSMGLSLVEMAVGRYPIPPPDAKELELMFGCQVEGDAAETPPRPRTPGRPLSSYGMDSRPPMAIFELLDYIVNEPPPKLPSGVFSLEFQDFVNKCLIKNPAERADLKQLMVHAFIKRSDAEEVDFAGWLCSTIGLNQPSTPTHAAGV

[13] = target: Proto-oncogene tyrosine-protein kinase receptor Ret (Homo sapiens) (UniProt P07949); settings: Compound concentration 1000.0 nM
[14] = target: Calcium/calmodulin-dependent protein kinase type 1D (Homo sapiens) (UniProt Q8IU85); settings: Compound concentration 1000.0 nM
Sequence of Calcium/calmodulin-dependent protein kinase type 1D (Homo sapiens) (Q8IU85 whole entry, looked up): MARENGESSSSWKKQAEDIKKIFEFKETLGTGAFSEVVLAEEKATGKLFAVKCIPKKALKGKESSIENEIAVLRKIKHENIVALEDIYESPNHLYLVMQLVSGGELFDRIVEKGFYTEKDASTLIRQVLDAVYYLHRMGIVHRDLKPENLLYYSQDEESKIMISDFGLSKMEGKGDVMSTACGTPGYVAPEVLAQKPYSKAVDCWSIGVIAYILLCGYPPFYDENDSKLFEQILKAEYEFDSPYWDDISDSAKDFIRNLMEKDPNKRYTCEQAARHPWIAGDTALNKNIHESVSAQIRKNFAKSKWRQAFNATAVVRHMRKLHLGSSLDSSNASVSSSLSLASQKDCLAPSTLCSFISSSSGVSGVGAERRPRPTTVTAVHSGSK

[15] = target: BDNF/NT-3 growth factors receptor (Homo sapiens) (UniProt Q16620); settings: Compound concentration 1000.0 nM
[16] = target: Serine/threonine-protein kinase D3 (Homo sapiens) (UniProt O94806); settings: Compound concentration 1000.0 nM
[17] = target: MAP kinase-interacting serine/threonine-protein kinase 1 (Homo sapiens) (UniProt Q9BUB5); settings: Compound concentration 1000.0 nM
[18] = target: Mitogen-activated protein kinase kinase kinase 10 (Homo sapiens) (UniProt Q02779); settings: Compound concentration 1000.0 nM
[19] = target: Dual specificity tyrosine-phosphorylation-regulated kinase 1A (Homo sapiens) (UniProt Q13627); settings: Compound concentration 1000.0 nM
[20] = target: Fibroblast growth factor receptor 4 (Homo sapiens) (UniProt P22455); settings: Compound concentration 1000.0 nM
[21] = target: Aurora kinase A (Homo sapiens) (UniProt O14965); settings: Compound concentration 1000.0 nM
Sequence of Aurora kinase A (Homo sapiens) (O14965 whole entry): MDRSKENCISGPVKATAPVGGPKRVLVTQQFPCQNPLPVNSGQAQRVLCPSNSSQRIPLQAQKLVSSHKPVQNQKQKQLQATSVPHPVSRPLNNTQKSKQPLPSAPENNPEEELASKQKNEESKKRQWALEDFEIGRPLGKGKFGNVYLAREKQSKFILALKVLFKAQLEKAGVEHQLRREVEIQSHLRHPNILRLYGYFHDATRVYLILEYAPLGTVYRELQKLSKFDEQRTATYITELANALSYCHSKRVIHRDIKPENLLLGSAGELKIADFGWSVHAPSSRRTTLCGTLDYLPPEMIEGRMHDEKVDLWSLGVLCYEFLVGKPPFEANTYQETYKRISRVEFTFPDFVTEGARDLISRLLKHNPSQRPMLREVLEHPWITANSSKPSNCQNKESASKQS

[22] = target: Bone morphogenetic protein receptor type-2 (Homo sapiens) (UniProt Q13873); settings: Compound concentration 1000.0 nM
[23] = target: Protein kinase C iota type (Homo sapiens) (UniProt P41743); settings: Compound concentration 1000.0 nM
[24] = tested on: Leucine-rich repeat serine/threonine-protein kinase 2 (Homo sapiens), Q5S007 [G2019S]; settings: Compound concentration 1000.0 nM
[25] = target: T1, Muscarinic acetylcholine receptor M2 (Homo sapiens) (UniProt P08172); settings: Compound concentration 10.0 uM
T1 sequence (whole entry): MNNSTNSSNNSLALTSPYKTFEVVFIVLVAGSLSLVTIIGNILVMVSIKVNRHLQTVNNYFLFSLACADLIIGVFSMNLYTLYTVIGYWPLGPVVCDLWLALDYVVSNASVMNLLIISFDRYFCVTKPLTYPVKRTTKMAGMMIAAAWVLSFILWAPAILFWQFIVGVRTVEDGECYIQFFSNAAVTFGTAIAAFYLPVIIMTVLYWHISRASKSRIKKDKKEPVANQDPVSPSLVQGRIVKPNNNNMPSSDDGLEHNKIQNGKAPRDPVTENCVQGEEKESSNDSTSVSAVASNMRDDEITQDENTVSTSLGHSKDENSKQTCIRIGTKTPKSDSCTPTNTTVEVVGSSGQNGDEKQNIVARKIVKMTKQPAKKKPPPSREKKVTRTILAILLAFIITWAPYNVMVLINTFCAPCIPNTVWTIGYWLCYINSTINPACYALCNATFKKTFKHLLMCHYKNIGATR

[26] = target: Ephrin type-B receptor 3 (Homo sapiens) (UniProt P54753); settings: Compound concentration 1000.0 nM
[27] = target: Cyclin-dependent kinase 14 (Homo sapiens) (UniProt O94921); settings: Compound concentration 1000.0 nM
[28] = target: Serine/threonine-protein kinase 32B (Homo sapiens) (UniProt Q9NY57); settings: Compound concentration 1000.0 nM
[29] = target: Mitogen-activated protein kinase 10 (Homo sapiens) (UniProt P53779); settings: Compound concentration 1000.0 nM
[30] = target: Mitogen-activated protein kinase 13 (Homo sapiens) (UniProt O15264); settings: Compound concentration 1000.0 nM
[31] = tested on: Proto-oncogene tyrosine-protein kinase receptor Ret (Homo sapiens), P07949 [V804M]; settings: Compound concentration 1000.0 nM
[32] = target: Serine/threonine-protein kinase TAO1 (Homo sapiens) (UniProt Q7L7X3); settings: Compound concentration 1000.0 nM
[33] = target: Tyrosine-protein kinase JAK1 (Homo sapiens) (UniProt P23458); settings: Compound concentration 1000.0 nM
[34] = target: Serine/threonine-protein kinase TAO3 (Homo sapiens) (UniProt Q9H2K8); settings: Compound concentration 1000.0 nM
[35] = tested on: Epidermal growth factor receptor (Homo sapiens), P00533 [L858R,T790M]; settings: Compound concentration 1000.0 nM
[36] = target: TRAF2 and NCK-interacting protein kinase (Homo sapiens) (UniProt Q9UKE5); settings: Compound concentration 1000.0 nM
[37] = target: Tyrosine-protein kinase receptor TYRO3 (Homo sapiens) (UniProt Q06418); settings: Compound concentration 1000.0 nM
[38] = tested on: Proto-oncogene tyrosine-protein kinase receptor Ret (Homo sapiens), P07949 [V804L]; settings: Compound concentration 1000.0 nM

Sequence of Phosphatidylinositol 4-phosphate 3-kinase C2 domain-containing subunit beta (Homo sapiens) (O00750 whole entry, the tested form may be a part): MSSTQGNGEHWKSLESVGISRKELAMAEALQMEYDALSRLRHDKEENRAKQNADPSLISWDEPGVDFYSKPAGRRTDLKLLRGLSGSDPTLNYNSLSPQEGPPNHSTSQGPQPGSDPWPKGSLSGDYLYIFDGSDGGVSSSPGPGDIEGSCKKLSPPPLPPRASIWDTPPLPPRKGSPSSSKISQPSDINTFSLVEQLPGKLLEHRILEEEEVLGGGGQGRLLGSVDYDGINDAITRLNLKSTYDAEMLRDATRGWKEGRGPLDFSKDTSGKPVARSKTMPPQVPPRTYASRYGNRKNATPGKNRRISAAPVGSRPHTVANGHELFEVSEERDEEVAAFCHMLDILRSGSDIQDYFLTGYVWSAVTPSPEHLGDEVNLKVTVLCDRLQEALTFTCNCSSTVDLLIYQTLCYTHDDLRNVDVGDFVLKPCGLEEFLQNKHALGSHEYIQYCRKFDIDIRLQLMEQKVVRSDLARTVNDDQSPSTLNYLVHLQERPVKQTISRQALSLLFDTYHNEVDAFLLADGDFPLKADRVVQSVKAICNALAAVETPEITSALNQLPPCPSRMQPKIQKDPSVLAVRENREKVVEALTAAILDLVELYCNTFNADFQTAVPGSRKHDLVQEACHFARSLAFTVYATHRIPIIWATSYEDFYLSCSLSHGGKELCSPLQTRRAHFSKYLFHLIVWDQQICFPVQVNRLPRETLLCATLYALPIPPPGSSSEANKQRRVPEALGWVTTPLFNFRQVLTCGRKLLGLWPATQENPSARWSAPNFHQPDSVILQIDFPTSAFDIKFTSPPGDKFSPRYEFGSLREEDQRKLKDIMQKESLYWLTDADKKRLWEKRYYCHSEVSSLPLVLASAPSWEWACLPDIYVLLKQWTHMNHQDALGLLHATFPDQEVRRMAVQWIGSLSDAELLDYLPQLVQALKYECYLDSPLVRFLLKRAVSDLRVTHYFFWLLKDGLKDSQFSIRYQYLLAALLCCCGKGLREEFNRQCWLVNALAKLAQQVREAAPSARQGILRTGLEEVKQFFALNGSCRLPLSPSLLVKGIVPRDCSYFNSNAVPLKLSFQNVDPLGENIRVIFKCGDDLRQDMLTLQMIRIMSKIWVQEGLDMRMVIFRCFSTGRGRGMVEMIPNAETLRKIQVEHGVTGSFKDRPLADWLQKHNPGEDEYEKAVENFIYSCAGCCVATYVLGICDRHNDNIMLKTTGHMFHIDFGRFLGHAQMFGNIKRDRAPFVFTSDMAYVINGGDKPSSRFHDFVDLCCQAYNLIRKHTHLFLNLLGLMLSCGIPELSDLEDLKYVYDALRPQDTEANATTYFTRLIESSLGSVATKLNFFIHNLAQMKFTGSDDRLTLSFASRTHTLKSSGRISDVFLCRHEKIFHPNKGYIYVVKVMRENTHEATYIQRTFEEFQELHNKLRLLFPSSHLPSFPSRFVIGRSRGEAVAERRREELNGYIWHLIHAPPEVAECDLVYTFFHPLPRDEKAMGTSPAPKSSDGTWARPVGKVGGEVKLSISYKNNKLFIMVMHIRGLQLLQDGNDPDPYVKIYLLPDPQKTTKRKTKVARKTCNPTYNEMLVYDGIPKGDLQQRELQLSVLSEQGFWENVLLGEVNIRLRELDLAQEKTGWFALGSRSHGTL

Row | Structure (SMILES) | residual activity [1] | residual activity [2] | residual activity [3] | residual activity [4] | inhibition [5] | residual activity [6] | residual activity [7] | residual activity [8] | inhibition [9] | residual activity [10] | residual activity [11] | residual activity [12] | residual activity [13] | residual activity [14] | residual activity [15] | residual activity [16] | residual activity [17] | residual activity [18] | residual activity [19] | residual activity [20] | other results
1 | CCC(=O)N[C@@H]1CC[C@H](C(=O)N(C)c2ccc(-c3nc4ccccc4o3)cc2)C1 [BI 99990] | 100% | 100% | 70% | 100% | 0.247% | 100% | 100% | 100% | 23.3% | 36% | 100% | 100% | 93% | 100% | 100% | 100% | 95% | 78% | 98% | 89% | residual activity [21]: 100%; residual activity [22]: 100%; residual activity [23]: 84%; residual activity [24]: 100%; inhibition [25]: 17.9%; residual activity [26]: 100%; residual activity [27]: 100%; residual activity [28]: 71%; residual activity [29]: 100%; residual activity [30]: 100%; residual activity [31]: 100%; residual activity [32]: 97%; residual activity [33]: 100%; residual activity [34]: 87%; residual activity [35]: 100%; residual activity [36]: 100%; residual activity [37]: 82%; residual activity [38]: 100%
2 | CCC(=O)N[C@H]1CC[C@@H](C(=O)N(C)c2ccc(-c3nc4ccccc4o3)cc2)C1 [BI 99179] | 100% | 97% | 93% | 91% | 1.55% | 83% | 100% | 100% | 77.3% | 100% | 79% | 89% | 92% | 100% | 100% | 100% | 80% | 91% | 63% | 100% | residual activity [21]: 43%; residual activity [22]: 98%; residual activity [23]: 92%; residual activity [24]: 100%; inhibition [25]: 4.58%; residual activity [26]: 76%; residual activity [27]: 92%; residual activity [28]: 98%; residual activity [29]: 85%; residual activity [30]: 85%; residual activity [31]: 100%; residual activity [32]: 100%; residual activity [33]: 100%; residual activity [34]: 70%; residual activity [35]: 100%; residual activity [36]: 100%; residual activity [37]: 92%; residual activity [38]: 98%
